The results in this text go back to the NIST ThermoML archive (doi:10.1016/j.tca.2014.09.022).

Data set [1] in a line: Molar enthalpy of transition or fusion. The settings on record: DSC.
For data set [2] the following is noted: DTA.

The structures appear in SMILES notation. Numbers after ± are expanded uncertainties.

`Oc1ccc(O)cc1` [1,4-benzenediol]: the “Molar enthalpy of transition or fusion” value in data set [1] (Crystal) amounted to 5.68 ± 0.311 kcal/mol. In addition, in data set [2] (Crystal), the Triple point temperature is recorded as 445.65 ± 2.5 K.

As for `O=C(O)CCCC(=O)O` [1,5-pentanedioic acid], the “Molar enthalpy of transition or fusion” value in data set [1] (Crystal) amounted to 5.02 ± 0.287 kcal/mol. Moreover, in data set [2] (Crystal), the Triple point temperature is recorded as 369.65 ± 2.5 K.

Take `O=C(O)CCCCCCCCC(=O)O` [1,10-decanedioic acid]: the “Molar enthalpy of transition or fusion” value in data set [1] (Crystal) amounted to 10.7 ± 0.574 kcal/mol. For the same molecule, the Triple point temperature in data set [2] (Crystal) is listed as 405.65 ± 2.5 K.

Regarding `OCCCCCCCCCCO` [1,10-decanediol], the “Molar enthalpy of transition or fusion” value in data set [1] (Crystal) is 10.7 ± 0.574 kcal/mol. The Triple point temperature in data set [2] (Crystal) was found to be 344.65 ± 2.5 K.

For `OC[C@@H](O)[C@@H](O)CO` [meso-1,2,3,4-butanetetrol], the “Molar enthalpy of transition or fusion” value in data set [1] (Crystal) turned out to be 9.54 ± 0.502 kcal/mol. Moreover, the Triple point temperature in data set [2] (Crystal) amounted to 390.15 ± 3 K.

As to `CNC(N)=O` [methylurea], the “Molar enthalpy of transition or fusion” value in data set [1] (Crystal) turned out to be 3.05 ± 0.177 kcal/mol. For the same molecule, the Triple point temperature in data set [2] (Crystal) was determined as 368.15 ± 5 K.

As to `CCCCCCCCCCCCCCCCCCCCCCCCCCCC` [octacosane], the entries for the “Molar enthalpy of transition or fusion” value in data set [1] (Crystal 1) and in data set [1] (Crystal 2) were 15.3 ± 0.86 kcal/mol and 8.49 ± 0.478 kcal/mol, respectively. For the same molecule, the values for the Triple point temperature in data set [2] (Crystal 1) and in data set [2] (Crystal 2) were 335.65 ± 2.5 K and 330.65 ± 2.5 K, respectively.
